Values of other authors as cited in article PMC9635817, “In vitro inhibition of acetylcholinesterase activity by yellow field pea (Pisum sativum) protein-derived peptides as revealed by kinetics and molecular docking” (Frontiers in Nutrition, 2022).

System: AChE

## COc1cc2c(cc1OC)[C@@H]1[C@H](O)[C@@H](OC)C=C3CCN(C2)[C@H]31 [galanthine]
  AChE-inhibitory IC50: 1.96 µg/mL
